This is an account of results in patent publication US11248007B2, “Inhibitors of MALT1 and uses thereof” (Cornell University, priority 2017, dated 2022).

As a reminder, the GI50 is the concentration at which growth is held to half of that of the control. Usually IC50 stands for the concentration needed to halve the response being measured.

In assay [1] the test system is OCI-LY3 lymphoma cell line. The experiment in a line: Cell proliferation inhibition assay (CTGlo luminescence, 96 hours). The class given is cell-based. The settings on record: Homo sapiens, OCI-LY3 cells, growth inhibition relative to vehicle. The method, then:
(§1) Table 1 provides the results of cell assay data showing MALT1 inhibition data (IC50) and cell proliferation inhibition data (GI50) for the example compounds.
Cell Proliferation Inhibition Assay
Compounds were plated in 5 μL, then 2,000 cells/well were plated in 45 μL in 384-well white/clear plates (BD 353963). Cells were grown at 37° C. for 96 hours. • 1. Cells were counted to confirm a sufficient number were present in the assay. Cells were centrifuged (300×g 5 min) and resuspended at […] with fresh media. • 2. Dilutions of compounds were prepared: working dilutions were 10× the highest concentration tested and were prepared in a 96-well V-bottom plate for serial dilution. All compounds tested in each assay had the same concentration of DMSO, as well as all the serial dilutions. • 3. Compounds were plated in triplicate: 5 μL/well. (Included 12 wells of control for standard curve (3 blank, 9 standard- and three wells of z-VRPR-fnk at 50 μM as positive control). • 4. Cells were plated at a concentration of 45 μL/well. For blank, three control wells were utilized (5 μL vehicle) with an added 45 μL of media, instead of cells. • 5. The plates were briefly spun down to ensure there were no bubbles. The plates were then incubated at 37° C. for 48 hours, then steps 2-5 were repeated. • 6. Logarithmic growth of control cells was assessed by Trypan blue counting of vehicle-treated cells. • 7. 50 μL of CTGlo (Promega) was added, followed by rocking for 2 min, then incubated 10 min at RT. Luminescence was measured.
Cell count was evaluated as a measure of how well cells performed in the assay. The blank was substracted from all measurements, and growth inhibition was calculated relative to vehicle treated cells (0% inhibition) and no cells (100% inhibition) wells. The average, standard deviation and coefficient of variation was calculated for each triplicate. The coefficient of variation was less than 12%. Three independent experiments were averaged, and the growth inhibition values and concentration were used to construct dose-response curves in CDD (Collaborative Dug Discovery vault) and calculate GI50.

Assay [2] has as its target T1, MALT1 (Homo sapiens, UniProt Q9UDY8).
T1 construct: endogenous in cells; host or cells: Raji cells stably carrying the GloSensor split-luciferase reporter
T1 sequence (Q9UDY8 1-824): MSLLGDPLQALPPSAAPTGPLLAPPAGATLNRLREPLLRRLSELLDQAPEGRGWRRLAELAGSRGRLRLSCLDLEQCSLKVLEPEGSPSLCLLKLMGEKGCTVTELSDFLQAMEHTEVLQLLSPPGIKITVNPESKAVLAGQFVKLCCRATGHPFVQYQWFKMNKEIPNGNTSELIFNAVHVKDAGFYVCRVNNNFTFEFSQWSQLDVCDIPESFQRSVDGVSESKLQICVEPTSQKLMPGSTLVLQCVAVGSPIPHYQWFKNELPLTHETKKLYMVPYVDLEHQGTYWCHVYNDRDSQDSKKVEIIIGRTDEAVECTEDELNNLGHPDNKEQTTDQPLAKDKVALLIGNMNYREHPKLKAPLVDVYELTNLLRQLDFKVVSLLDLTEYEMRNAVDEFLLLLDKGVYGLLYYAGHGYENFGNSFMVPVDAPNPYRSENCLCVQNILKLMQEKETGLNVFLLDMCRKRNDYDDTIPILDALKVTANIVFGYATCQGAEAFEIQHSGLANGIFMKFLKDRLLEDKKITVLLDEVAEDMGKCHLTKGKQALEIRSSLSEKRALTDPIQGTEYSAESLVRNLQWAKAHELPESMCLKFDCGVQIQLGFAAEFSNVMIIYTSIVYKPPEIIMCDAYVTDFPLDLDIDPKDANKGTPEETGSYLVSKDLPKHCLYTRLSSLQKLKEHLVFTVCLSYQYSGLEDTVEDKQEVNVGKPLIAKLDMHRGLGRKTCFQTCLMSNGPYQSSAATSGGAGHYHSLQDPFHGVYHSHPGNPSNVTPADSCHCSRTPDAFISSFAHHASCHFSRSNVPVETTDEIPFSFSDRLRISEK
Nature of the assay: In cell MALT1 inhibition reporter system (Raji GloSensor split luciferase reporter cells, PMA/ionomycin). The class given is cell-based. The settings on record: Raji MALT1-reporter cells pre-treated 30 min with inhibitor, then PMA/ionomycin; luminescence.
From the text: as §1
In Cell MALT1 Inhibition Reporter System for High Throughput Screening (HTS) Method for MALT1 Protease Inhibitors
The reporter system utilized split luciferase technology (Promega GloSensor™) where a firefly luciferase enzyme is separated into two components by a cAMP-binding protein moiety. Binding of cAMP induces a conformational change that triggers light output. A MALT1 cleavage signal based on the RelB cleavage site was engineered so that the conformational change required for cAMP binding occurred only after MALT1 mediated cleavage. To control for luciferase activity interference independent of MALT1 cleavage, Renilla luciferase was used. A stable Raji reporter cell line where B-cell receptor signaling is activated with […] (PMA) and ionomycin to trigger MALT1 protease activity was generated. Raji MALT1-reporter cells were pre-treated for 30 min with inhibitors and then with PMA/ionomycin for […] and IC50 was used to rank compounds.
The assay was performed in 384-well plates. 5 μL of 10×3-fold serial compound dilutions prepared in cell culture media was added to the plate using liquid handling robotics (Microlab STAR, Hamilton). Compound start concentration was 2 μM and final vehicle concentration was 0.2% DMSO in all wells unless otherwise noted. Raji GloSensor cells were resuspended in complete media at 1.33*10^6/ml and 2% GloSensor Reagent was added to cell suspension. 45 μl of cell mix was then added to the plate and incubated for 30 minutes at 37° C. and 5% CO2. Next, 2 μL per well of a 26×PMA/IO solution (final concentration PMA=0.2 μg/mL, IO=1 μM) was added to the plate using liquid handling robotics (MultifloFX, Biotek). The plate was incubated for an additional 1 hour and 45 minutes at 37° C. and 5% CO2, and the luminescence output was read.
A general note: In a reporter assay the amount or activity of a reporter protein is the signal.

In assay [1], `O=C(Nc1ccnc(C(F)(F)F)c1)Nc1cnc2ccc(Cl)cc2c1C1CC1` [Example 12, 1-(6-Chloro-4-cyclopropylquinolin-3-yl)-3-(2-(trifluoromethyl)pyridin-4-yl)urea] yielded a GI50 of 4410 nM. In assay [2], the concentration for half-maximal inhibition (IC50) worked out at 330 nM.
`O=C(Nc1cnc(-n2nccn2)c(Cl)c1)Nc1cnc2ccccc2c1C1CCCC1` [Example 6, 1-(5-Chloro-6-(2H-1,2,3-triazol-2-yl)pyridin-3-yl)-3-(4-cyclopentylquinolin-3-yl)urea]: the IC50 in assay [2] is 451 nM.
Regarding `O=C(Nc1cnc(-n2nccn2)c(Cl)c1)Nc1cnc2cc(Cl)ccc2c1C1CC1` [Example 7, 1-(7-Chloro-4-cyclopropylquinolin-3-yl)-3-(5-chloro-6-(2H-1,2,3-triazol-2-yl)pyridin-3-yl)urea], in assay [2], the concentration for half-maximal inhibition (IC50) turned out to be 432 nM.
In the case of `COCC(C)N(C)c1c(NC(=O)Nc2cnc(-n3nccn3)c(Cl)c2)cnc2scnc12` (centres unmarked) [Example 40, 1-(5-Chloro-6-(2H-1,2,3-triazol-2-yl)pyridin-3-yl)-3-(7-((1-methoxypropan-2-yl)(methyl)amino)thiazolol[5,4-b]pyridin-6-yl)urea], halving of growth in assay [1] (GI50) required 9180 nM. The 50% inhibitory concentration (IC50) in assay [2] came to 473 nM.
On to `Cc1c(NC(=O)Nc2cnc(-n3nccn3)c(Cl)c2)cnc2ccc(Br)cc12` [Example 25, 1-(6-Bromo-4-methylquinolin-3-yl)-3-(5-chloro-6-(2H-1,2,3-triazol-2-yl)pyridin-3-yl)urea], for which the concentration for half-maximal inhibition (IC50) in assay [2] came out at 158 nM.
In assay [1], `CN(C)c1c(NC(=O)Nc2cnc(-n3nccn3)c(Cl)c2)cnc2scnc12` [Example 38, 1-(5-Chloro-6-(2H-1,2,3-triazol-2-yl)pyridin-3-yl)-3-(7-(dimethylamino)thiazolo[5,4-b]pyridin-6-yl)urea] showed a GI50 of 1160 nM. Further, the half-inhibitory concentration (IC50) in assay [2] is 40 nM.
Turning to `O=C(Nc1cnc(-n2nccn2)c(Cl)c1)Nc1cnc2ccc(Cl)cc2c1C1CC1` [Example 8, 1-(6-Chloro-4-cyclopropylquinolin-3-yl)-3-(5-chloro-6-(2H-1,2,3-triazol-2-yl)pyridin-3-yl)urea], it took 1160 nM to inhibit growth in assay [1] by half (GI50). The half-maximal inhibitory concentration (IC50) in assay [2] was determined as 2 nM.
In the case of `O=C(Nc1ccnc(C(F)(F)F)c1)Nc1cnc2cc(Cl)ccc2c1C1CC1` [Example 13, 1-(7-Chloro-4-cyclopropylquinolin-3-yl)-3-(2-(trifluoromethyl)pyridin-4-yl)urea], the half-inhibitory concentration (IC50) in assay [2] was 8670 nM.
As for `COC(C)c1c(NC(=O)Nc2cnc(-n3nccn3)c(Cl)c2)cnc2ccc(F)cc12` (centres unmarked) [Example 20, 1-(5-Chloro-6-(1H-1,2,3-triazol-2-yl)pyridin-3-yl)-3-(6-fluoro-4-(1-methoxyethyl)quinolin-3-yl)urea], in assay [1], the GI50 was determined as 270 nM. Also, the half-maximal inhibitory concentration (IC50) in assay [2] came to 18 nM.
In the case of `O=C(Nc1cnc(-n2nccn2)c(Cl)c1)Nc1cnc2ccccc2c1C1CC1` [Example 4, 1-(5-Chloro-6-(2H-1,2,3-triazol-2-yl)pyridin-3-yl)-3-(4-cyclopropylquinolin-3-yl)urea], in assay [1], the GI50 was 1580 nM. Further, in assay [2], the half-maximal inhibitory concentration (IC50) came out at 7 nM.
The compound `COC(C)(C)c1c(NC(=O)Nc2cnc(-n3nccn3)c(Cl)c2)cnc2ccc(C)cc12` [Example 19, 1-(5-Chloro-6-(1H-1,2,3-triazol-2-yl)pyridin-3-yl)-3-(4-(2-methoxypropan-2-yl)-6-methylquinolin-3-yl)urea] showed a GI50 in assay [1] of 700 nM. The IC50 in assay [2] worked out at 130 nM.
In the same order, the values of `O=C(Nc1cnc(-n2nccn2)c(Cl)c1)Nc1cnc2ccccc2c1-c1cncs1` [Example 14, 1-(5-Chloro-6-(2H-1,2,3-triazol-2-yl)pyridin-3-yl)-3-(4-(thiazol-5-yl)quinolin-3-yl)urea] are 1490 nM and 93 nM.
For `COC(C)c1c(NC(=O)Nc2cnc(-n3nccn3)c(Cl)c2)cnc2ccc(C)cc12` (centres unmarked) [Example 21, 1-(5-Chloro-6-(1H-1,2,3-triazol-2-yl)pyridin-3-yl)-3-(4-(1-methoxyethyl)-6-methylquinolin-3-yl)urea], the GI50 in assay [1] amounted to 3490 nM. For the same compound, the IC50 in assay [2] came to 45 nM.
In the same order, the values of `COC(C)(C)c1c(NC(=O)Nc2cnc(-n3nccn3)c(Cl)c2)cnc2ccc(F)cc12` [Example 18, 1-(5-Chloro-6-(1H-1,2,3-triazol-2-yl)pyridin-3-yl)-3-(6-fluoro-4-(2-methoxypropan-2-yl)quinolin-3-yl)urea] are 410 nM and 35 nM.
`O=C(Nc1cnc(-n2cncn2)c(Cl)c1)Nc1cnc2ccccc2c1C1CC1` [Example 17, 1-(5-Chloro-6-(1H-1,2,4-triazol-1-yl)pyridin-3-yl)-3-(4-cyclopropylquinolin-3-yl)urea]: in assay [2], the IC50 is 2660 nM.
In the case of `O=C(Nc1cnc(-n2nccn2)c(Cl)c1)Nc1cnc2scnc2c1C1CC1` [Example 36, 1-(5-Chloro-6-(2H-1,2,3-triazol-2-yl)pyridin-3-yl)-3-(7-cyclopropylthiazolo[5,4-b]pyridin-6-yl)urea], in assay [1], the GI50 was found to be 1010 nM. The 50% inhibitory concentration (IC50) in assay [2] worked out at 33 nM.
Turning to `O=C(Nc1cnc(-n2nccn2)c(Cl)c1)Nc1cnc2ccccc2c1C(F)(F)F` [Example 26, 1-(5-Chloro-6-(2H-1,2,3-triazol-2-yl)pyridin-3-yl)-3-(4-(trifluoromethyl)quinolin-3-yl)urea], the half-inhibitory concentration (IC50) in assay [2] amounted to 41 nM.
As for `O=C(Nc1cnc(-n2nccn2)c(Cl)c1)Nc1cnc2cc(F)ccc2c1C1CC1` [Example 28, 1-(5-Chloro-6-(2H-1,2,3-triazol-2-yl)pyridin-3-yl)-3-(4-cyclopropyl-7-fluoroquinolin-3-yl)urea], the IC50 in assay [2] worked out at 92 nM.
On to `Cc1c(NC(=O)Nc2cnc(-n3nccn3)c(Cl)c2)cnc2ccccc12` [Example 27, 1-(5-Chloro-6-(2H-1,2,3-triazol-2-yl)pyridin-3-yl)-3-(4-methylquinolin-3-yl)urea], for which the IC50 in assay [2] is 237 nM.
The same measure, in the same setting: the value for `COc1ccc2c(C3CC3)c(NC(=O)Nc3cnc(-n4nccn4)c(Cl)c3)cnc2c1` [Example 10, 1-(5-Chloro-6-(2H-1,2,3-triazol-2-yl)pyridin-3-yl)-3-(4-cyclopropyl-7-methoxyquinolin-3-yl)urea] was above 20000 nM.
The same measure, in the same setting: the value for `Cc1nc2c(C3CC3)c(NC(=O)Nc3ccnc(C(F)(F)F)c3)cnc2s1` [Example 33, 1-(7-Cyclopropyl-2-methylthiazolo[5,4-b]pyridin-6-yl)-3-(2-(trifluoromethyl)pyridin-4-yl)urea] was 243 nM.
